Measurements: US8853230B2, “Inhibitors of JAK” (Portola Pharmaceuticals, Inc., priority 2009, dated 2014)

Columns and labels:
Assay type in all cases: biochemical
[1] = biological target: T1, TYK2 (Homo sapiens, UniProt P29597); test: Z'-LYTE kinase assay, TYK2 tyrosine phosphorylation activity
T1 construct: 5 μl of catalytic domain recombinant Kinase enzyme+Tyr peptide substrate (Invitrogen, Calif.); purchased Invitrogen
T1 sequence (P29597 897-1176 limits assumed): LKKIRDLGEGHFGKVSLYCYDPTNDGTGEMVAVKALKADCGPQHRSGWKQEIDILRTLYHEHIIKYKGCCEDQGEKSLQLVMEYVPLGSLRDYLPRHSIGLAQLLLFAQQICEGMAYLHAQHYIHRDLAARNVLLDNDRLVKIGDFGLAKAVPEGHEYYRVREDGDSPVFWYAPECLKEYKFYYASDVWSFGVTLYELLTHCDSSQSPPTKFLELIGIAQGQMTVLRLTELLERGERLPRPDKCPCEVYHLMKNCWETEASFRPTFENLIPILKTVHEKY
Description: (§1) JAK and TYK2 tyrosine phosphorylation activity is measured using the Z′-LYTE™ Technology developed by Invitrogen Corporation (Carlsbad, Calif.). For JAK1, JAK2 and JAK3 the Z′-LYTE™ Kinase Assay Kit-Tyr6 Peptide (part number PV4122) was used. For TYK2 the Z′-LYTE™ Kinase Assay Kit-Tyr6 Peptide (part number PV3192) was used. The Z′-LYTE™ biochemical assay employs a fluorescence resonance energy transfer (FRET) coupled-enzyme format and is based on the differential sensitivity of phosphorylated and non-phosphorylated peptides to proteolitic cleavage. The assay uses a synthetic peptide substrate that is labelled with a donor fluorophore (coumarin) and an acceptor fluorophore (fluorescein) that make up a FRET pair. In the primary reaction (the Kinase Reaction), the kinase transfers the γ-phosphate of ATP to a single tyrosine residue on the substrate, while the presence of a kinase inhibitor in the primary reaction suppresses phosphorylation. In the secondary reaction (the Development Reaction), a site-specific protease (the Development Reagent) is added. The development buffer quenches the Kinase Reaction, while the protease recognizes and cleaves non-phosphorylated Z′-LYTE™ peptide substrate. Cleavage disrupts FRET between the donor and acceptor fluorophores on the non-phosphoryleted substrate, while uncleaved, phosphorylated substrate maintains FRET.
(§2) To test the ability of candidate molecules to inhibit JAK tyrosine phosphorylation activity, molecules are reconstituted in 100% DMSO and serially diluted 1:10 in polypropylene v-bottom microtiter plates. The candidate molecules are then diluted 1:25 into kinase buffer and 2.5 μl transferred into duplicate wells of a 384 well low volume black microtiter assay plate (Corning, USA). The final DMSO concentration in the assay is 1%. The kinase reaction contains 2.5 μl of a candidate molecule, 5 μl of catalytic domain recombinant Kinase enzyme+Tyr peptide substrate (Invitrogen, Calif.) and 2.5 μl ATP (Invitrogen, Calif.). The kinase reaction is allowed to procede for 1 hour at room temperature. The protease reaction is initiated by the addition of 5 μl Development Reagent (Invitrogen, Calif.). After 1 hour incubation at room temperature the fluorescence is measured using a FlexStation plate reader (Molecular Devices, Sunnyvale, Calif.). The reader settings used are as follows: Fluorescence mode, endpoint, top read, excitation 400 nm, emission 445 nm and 520 nm, Auto Cutoff 435 nm and 515 nm, PMT sensitivity high, 6 reads per well. Inhibition of JAK activity is calculated as the percent phosphorylation of substrate in the presence of inhibitor compared to the percent phosphorylation of substrate in the absence of inhibitor. IC50's were derived using Xlfit 4.3 (IDBS, UK), 4 parameter logistic model 205: Y=(A+((B−A)/(1+((C/x)^D)))).

[2] = biological target: T2, JAK3 (Homo sapiens, UniProt P52333); test: Z'-LYTE kinase assay, JAK3 tyrosine phosphorylation activity
T2 construct: 5 μl of catalytic domain recombinant Kinase enzyme+Tyr peptide substrate (Invitrogen, Calif.); purchased Invitrogen
Description: as §1, §2

[3] = biological target: T3, JAK1 (Homo sapiens, UniProt P23458); test: Z'-LYTE kinase assay, JAK1 tyrosine phosphorylation activity; conditions: read-out: JAK 1 IC50
T3 construct: 5 μl of catalytic domain recombinant Kinase enzyme+Tyr peptide substrate (Invitrogen, Calif.); purchased Invitrogen
Description: as §1, §2

[4] = biological target: T4, JAK2 (Homo sapiens, UniProt O60674); test: Z'-LYTE kinase assay, JAK2 tyrosine phosphorylation activity
T4 construct: 5 μl of catalytic domain recombinant Kinase enzyme+Tyr peptide substrate (Invitrogen, Calif.); purchased Invitrogen
Description: as §1, §2

T2 sequence (P52333 822-1111 limits assumed): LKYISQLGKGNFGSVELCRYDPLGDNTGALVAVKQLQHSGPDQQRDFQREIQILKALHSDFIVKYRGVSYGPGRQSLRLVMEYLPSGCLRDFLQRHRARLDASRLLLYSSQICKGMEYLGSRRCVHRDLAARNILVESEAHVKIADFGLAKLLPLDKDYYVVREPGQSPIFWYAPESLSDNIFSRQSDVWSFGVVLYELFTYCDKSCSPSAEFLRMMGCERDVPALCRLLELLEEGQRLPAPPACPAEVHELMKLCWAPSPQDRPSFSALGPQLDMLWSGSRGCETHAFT
T3 sequence (P23458 875-1153 limits assumed): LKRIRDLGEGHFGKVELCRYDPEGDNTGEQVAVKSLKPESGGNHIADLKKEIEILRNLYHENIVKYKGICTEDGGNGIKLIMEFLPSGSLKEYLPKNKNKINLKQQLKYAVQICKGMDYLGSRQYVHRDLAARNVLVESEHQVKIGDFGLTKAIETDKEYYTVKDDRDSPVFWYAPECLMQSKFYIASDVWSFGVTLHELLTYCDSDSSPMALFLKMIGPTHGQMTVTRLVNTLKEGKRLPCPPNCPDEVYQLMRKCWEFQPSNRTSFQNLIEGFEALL
T4 sequence (O60674 849-1124 limits assumed): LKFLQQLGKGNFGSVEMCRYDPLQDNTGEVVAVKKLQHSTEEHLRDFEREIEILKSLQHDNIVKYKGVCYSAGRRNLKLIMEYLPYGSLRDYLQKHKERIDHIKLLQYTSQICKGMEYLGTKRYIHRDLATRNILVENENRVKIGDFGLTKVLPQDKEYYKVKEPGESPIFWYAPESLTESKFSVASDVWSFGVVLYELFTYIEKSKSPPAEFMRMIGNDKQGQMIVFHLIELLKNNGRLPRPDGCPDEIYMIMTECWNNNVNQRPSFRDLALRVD

IC50 [1] [nM]	IC50 [2] [nM]	IC50 [3] [nM]	IC50 [4] [nM]	SMILES
10 to 100	10 to 100	10 to 100	10 to 100	CC(=O)N(C)c1cccc(Nc2ncc(C(N)=O)c(NCC3CC3)n2)c1 [Example 126, 4-(cyclopropylmethylamino)-2-(3-(N-methylacetamido)phenylamino)pyrimidine-5-carboxamide]
1 to 10	< 1	10 to 100	1 to 10	CN1CCN(C(=O)Nc2cccc(Nc3ncc(C(N)=O)c(NCc4cccc(F)c4)n3)c2)CC1 [Example 258, 4-(3-fluorobenzylamino)-2-(3-(4-methylpiperazine-1-carboxamido)phenylamino)pyrimidine-5-carboxamide]
10 to 100	10 to 100	10 to 100	10 to 100	CC(=O)Nc1cccc(Nc2ncc(C(N)=O)c(N[C@@H](C)C(C)C)n2)c1 [Example 247, (S)-2-(3-acetamidophenylamino)-4-(3-methylbutan-2-ylamino)pyrimidine-5-carboxamide]
100 to 1000	100 to 1000	100 to 1000	100 to 1000	NC(=O)c1cnc(Nc2cc(NC(=O)N3CCCC3)ccc2F)nc1NCc1ccccc1 [Example 204, 4-(benzylamino)-2-(2-fluoro-5-(pyrrolidine-1-carboxamido)phenylamino)pyrimidine-5-carboxamide]
10 to 100	1 to 10	10 to 100	10 to 100	CC[C@@H](C)Nc1nc(Nc2ccc(Cl)c(NC(=O)N3CCCC3)c2)ncc1C(N)=O [Example 237, (R)-4-(sec-butylamino)-2-(4-chloro-3-(pyrrolidine-1-carboxamido)phenylamino)pyrimidine-5-carboxamide]
> 1000	100 to 1000	> 1000	> 1000	COc1ccc(Nc2ncc(C(N)=O)c(NCc3cccc(F)c3)n2)cc1N(C)C(=O)N1CCCC1 [Example 240, 4-(3-fluorobenzylamino)-2-(4-methoxy-3-(N-methylpyrrolidine-1-carboxamido)phenylamino)pyrimidine-5-carboxamide]
100 to 1000	100 to 1000	–	100 to 1000	NC(=O)c1cnc(Nc2cccc(NC(=O)N3CCC[C@@H](O)C3)c2)nc1NCc1ccccc1 [Example 212, (R)-4-(benzylamino)-2-(3-(3-hydroxypiperidine-1-carboxamido)phenylamino)pyrimidine-5-carboxamide]
–	10 to 100	> 1000	100 to 1000	NC(=O)c1cnc(Nc2cccc(NC(=O)N3CCCC3)c2)cc1NCc1cccnc1 [Example 320, 4-(pyridin-3-ylmethylamino)-6-(3-(pyrrolidine-1-carboxamido)phenylamino)nicotinamide]
–	> 1000	> 1000	> 1000	CNC(=O)c1cnc(Nc2cccc(NC(C)=O)c2)cc1NCc1ccccc1 [Example 339, 6-(3-acetamidophenylamino)-4-(benzylamino)-N-methylnicotinamide]
–	1 to 10	> 1000	100 to 1000	NC(=O)c1cnc(Nc2cccc(NC(=O)N3CCCC3)c2)cc1NCc1cc(F)cc(F)c1 [Example 341, 4-(3,5-difluorobenzylamino)-6-(3-(pyrrolidine-1-carboxamido)phenylamino)nicotinamide]
–	10 to 100	> 1000	> 1000	NC(=O)c1cnc(Nc2ccc(F)c(NC(=O)N3CCCC3)c2)cc1N[C@H](CO)c1ccccc1 [Example 313, (S)-6-(4-fluoro-3-(pyrrolidine-1-carboxamido)phenylamino)-4-(2-hydroxy-1-phenylethylamino)nicotinamide]
–	1 to 10	100 to 1000	10 to 100	NC(=O)c1cnc(Nc2cccc(NC(=O)N3CCCC3)c2)cc1NCc1cccc(F)c1 [Example 309, 4-(3-fluorobenzylamino)-6-(3-(pyrrolidine-1-carboxamido)phenylamino)nicotinamide]
